Experimental data published in patent US20060252725A1, “Use of prebiotics for preventing or treating oxidation stress” (priority 2002, published 2006).

How the values were obtained:
Format in all cases: in vivo, rat (Wistar-Han)
lipid peroxidation [1] = test: Plasma TBARS in rats after 4 weeks of diet
Method: (§1) 40 weaned male rats of the Wistar-Han type (IFFA-CREDO; L'Arbresle, France) 6 week old and weighing approximately 150 g were used. The rats were placed in cages with a wire mesh back in a temperature-controlled room (22° C.) with day/night cycles of 12 hours. The animals were treated according to the recommendations of the INRA Ethics Committee, decree No. 87-848.
(§2) First of all the rats were fed following a semi-purified starch-based diet for 7 days: They were then randomly divided into 4 groups of 10 rats: one starch group (A), one fructose group (F), one starch+FOS group (A/FOS) and one fructose+FOS group (F/FOS). They then followed their appropriate diet for 4 weeks. […]
(§3) The FOS (Raftilose® P95) were obtained from ORAFTI, Thienen, Belgium. They were introduced into the food gradually in order to avoid diarrhoea which could occur in response to too rapid an administration of large quantities of this compound. […]
(§4) 4 days before sacrifice, the animals were housed individually in stainless steel cages with ad libitum access to the water and food. Urine-samples were recovered 24 hours before sacrifice in 50 ml graduated tubes, the volumes were precisely measured, the samples were then centrifuged and kept at −80° C. until analysis. […]
(§5) The levels of plasma TBARS were determined by spectrofluorometry on an LS 5 device (Perkin Elmer, Norwalk, Conn., USA). […]

lipid peroxidation [2] = test: Urinary TBARS in rats after 4 weeks of diet; conditions: diet for 4 weeks
Method: as §1, §2, §3, §4, §5

[3] = Plasma triglyceride concentration in rats after 4 weeks of diet; conditions: diet for 4 weeks, average of 10 animals ± standard deviation
Method: as §1
(§6) First of all the rats were fed following a semi-purified starch-based diet for 7 days: They were then randomly divided into 4 groups of 10 rats: one starch group (A), one fructose group (F), one starch+FOS group (A/FOS) and one fructose+FOS group (F/FOS). They then followed their appropriate diet for 4 weeks.
(§7) The food and distilled water were provided ad libitum. The composition of the food rations was as follows (in g/kg):
as §3, §4

heart lipids = test: Heart TBARS: susceptibility of heart lipids to FeSO4-ascorbate induced peroxidation; conditions: rats, diet for 4 weeks
Method: as §1, §2, §3, §4, §5

[4] = Plasma vitamin E concentration and vitamin E/triglycerides ratio in rats after 4 weeks of diet; conditions: diet for 4 weeks
Method: as §1, §6, §7
The FOS (Raftilose® P95) were obtained from ORAFTI, Thienen, Belgium. They were introduced into the food gradually in order to avoid diarrhoea which could occur in response to too rapid an administration of large quantities of this compound. Raftilose® P95 is a mixture of Glucosyl-(Fructosyl)n-Fructose (64%) and of (Fructosyl)m-Fructose (36%) with average degrees of polymerization of 4.8.
as §4, with “analysis. At the time of sacrifice the rats were weighed, then anesthetized using sodium pentobarbital (intra-peritoneal injection at 40 mg/kg) and killed.” for “analysis.”
The plasma concentrations of vitamin E were determined by reversed-phase high performance liquid chromatography on a Kontron series 400 device (Kontron St Quentin en Yvelines, France) using a hexane extract. α-tocopherol acetate (Sigma) was added to the samples as internal control. […] The compounds were detected by UV (292 nm) then quantified with internal and external calibrations using control solutions.

[5] = Fructose vs Starch group, Fructose+FOS vs Fructose group

## O=C(CO)[C@@H](O)[C@H](O)[C@H](O)CO [Fructose]
Lipid peroxidation [1]; diet ad libitum for 4 weeks, FOS 100 g/kg diet, sugar 650 or 550 g/kg, average of 10 animals ± standard deviation
  Plasma TBARS: 2.14 ± 0.07 nmol/mL
Lipid peroxidation [1]; diet for 4 weeks, Fructose vs Starch group, Fructose+FOS vs Fructose group
  Plasma TBARS, comparison between diet groups: significantly higher
Lipid peroxidation [2]; [5]
  Urinary TBARS, comparison between diet groups: significantly higher
Lipid peroxidation [2]; urine of 24 hours, average of 10 animals ± standard deviation
  Urinary TBARS: 21.97 ± 1.58 nmol/24 h
[3]
  Triglycerides (TG): 3.73 ± 0.45 mM
Heart lipids; [5]
  Heart TBARS, comparison between diet groups: significantly higher
Heart lipids; heart homogenate, FeSO4 (2 μmol/l)-ascorbate (50 μmol/l), 30 minutes at 37° C., average of 10 animals ± standard deviation
  Heart TBARS: 98.8 ± 6.5 nmol/g of fresh weight
[4]; diet rich in fructose vs starch diet, supplementation with FOS
  Ratio Vitamin E/TG, effect of the diet: lowers the ratio Vitamin E/TG
[4]; plasma ratio, average of 10 animals ± standard deviation
  Vitamin E/TG: 2.68 ± 0.12 µg/µmol
[4]; plasma, average of 10 animals ± standard deviation
  Vitamin E: 9.74 ± 0.92 µg/mL
